SMILES strings stand for the structures.

The text below walks through data of patent publication EP0945138A1, “Transfection particles” (Université Louis Pasteur de Strasbourg, priority 1997, dated 1999).

Holding throughout (type): physicochemical
Data set [1] is described as follows: Determination of the critical micelle concentration (c.m.c.) with a Langmuir balance, without DNA. The following applies: for CMC / CMC without DNA: MES buffer 20 mM pH 6 containing 10 mM DTT; for c.m.c.: n-alkyl esters of cysteine by chain length, Langmuir balance, 20 mM MES buffer, pH 6. Here is the method: Clean monomolecular DNA collapse is generally expected only for detergent concentrations below the critical micelle concentration (c.m.c.). Several n-alkyl esters of cysteine were synthesized by DMAP-catalyzed dicyclohexylcarbodiimide (DCC) dehydration and their c.m.c.'s were determined with a Langmuir balance (20 mM MES buffer, pH 6), providing the following results (n-alkyl chain length / c.m.c.): dodecane / 15 µM; undecane / 80 µM; decane / 320 µM; octane /> 2000 µM. Typical working plasmid concentrations for gene delivery experiments being in the 50 µM range, the decane chain is a safe choice. The weakly basic nature of the cysteine ester primary amine function (pKa= 6.8) is insufficient for simultaneous DNA binding (which requires a protonated detergent) and reasonable thiol oxidation rates in slightly basic medium. The amine function was therefore converted into a highly basic guanidine which is known to interact strongly with DNA (C10 -CG+, Fig. 2).
(§1) i) c.m.c. of a detergent with C8, C10, C11 and C12 cysteine Measurement of the c.m.c. was acomplished with a Langmuir balance in a MES buffer (20 mM pH 6) containing 10 mM DTT. When representing the surface tension as a logarithmic function of the detergent concentration a break at the c.m.c. was observed (Fig. 10). Applying this method c.m.c.'s of the compounds having different chain length (C8, C10, C11, C12) were determined.

The test system of data set [2] is calf thymus DNA. Description: UV spectroscopy of spermine or SC2 particles at raised NaCl concentration. The following applies: 76 µM DNA bases; for absorption at 330 nm as compared to the maximum optical density at 25 mM NaCl: 65 mM SC2. As to the method: The characterisation of the formed particles by UV spectroscopy was performed for different reasons. DNA in solution has a characteristic absorption spectrum between 240 and 310 nm. The absorption (optical density) has a maximum at 260 nm and 0 towards 310 nm. A change in DNA conformation should change the profile of the absorption spectrum. Moreover, the formation of particles results in an enhancement of the diffusion which can be perceived in UV by an enhancement of optical density.
Calf thymus DNA was complexed with spermine under conditions optimal for obtaining toroid structures as described by Naroditsky et al. (76 µM DNA bases, 65 mM spermine, 25 mM NaCl).

The test system of data set [3] is calf thymus DNA. Description: Determination of thiol functions of SC2 with Ellman's reagent during DNA complexation. As to conditions: after 10 min, no oxygen except that in the water.
In data set [4] the test system is calf thymus DNA. Description: Determination of the c.m.c. with a Langmuir balance, buffer containing DNA. As to conditions: buffer containing calf thymus DNA at 30 µM bp. As to the method: as §1
ii) c.m.c. of C10 and C11 cysteine with and without DNA. In an analogous manner as above the c.m.c. value of C10 cysteine and C11 cysteine was determined, the buffer containing calf thymus DNA at a concentration of 30 µM bp (Fig. 11A, B).

Data set [5] concerns pCMV-luc plasmid DNA. Put plainly: Agarose gel electrophoresis: physical and chemical stability of the complexes. As to conditions: 1% agarose gel, 40 mM Tris-acetate buffer pH 8. Here is the method:
In a series of experiments, the reversibility of complex formation as well as the stability of complexed DNA towards degradation were assessed by electrophoresis (Fig. 5). […] Yet the cationic lipid/DNA particles could be destroyed either with excess sodium dodecyl sulfate detergent (SDS, lane 3) or by converting the lipid back to the original C10 -CG+ detergent with excess reducing dithiothreitol (DTT, lane 4). Serum nucleases present in cell culture medium rapidly degrade supercoiled plasmid DNA (lanes 1 and 8) into a smear of fragments with many nicks (lane 5).
1% agarose gel electrophoresis (90 min at 8 V/cm in 40 mM Tris-acetate buffer pH 8) of 20 µl samples containing 0.4 µg (lanes 1-4) or 0.2 µg (lanes 5-8) pCMV-luc plasmid DNA. Complexes were made by addition of a 100-fold concentrated C10 -C^G+ detergent solution (90 µM final concentration) to a solution of plasmid (60 µM) in HEPES buffer (15 mM, pH 7.4). The solution was gently mixed once and left to oxydize for 24 h. Lane 1: 60 µM plasmid DNA. Lane 2: 60 µM oxydized (C10 -C^G+)2/DNA complexes. Lane 3: as lane 2 in 3 mM final sodium dodecylsulfate before loading. Lane 4: as lane 2 in 6 mM dithiothreitol before loading. Lane 5: 60 µM plasmid incubated for 1 h at 37 °C with an equivalent volume of DMEM cell culture medium containing 10% serum. Lane 6: 60p µ M oxydized (C10 -C^G+)2/DNA complexes incubated as lane 5. […]

Data set [6] deals with pCMVluc plasmid DNA. Put plainly: Oxidation rate of cysteine detergent into cystine lipid (free thiol, Ellman's reagent) with and without template DNA. The following applies: 90 µM detergent, TrisHCl 15 mM pH 8.4 saturated with oxygen, with 60 µM plasmid DNA versus without. Here is the method: Oxidative detergent dimerization was expected to be prone to a template effect of DNA (Fig. 1). Fast intra-complex reaction is a key aspect to formation of small and stable particles since extensive detergent dimerization into lipid prior to DNA binding would bring the system back to a classical cationic lipid/DNA complex formation/aggregation process. Enhanced air oxidation rate was indeed observed in the presence of DNA (Fig. 3).
The stock buffer solution (TrisHCl 15 mM pH 8.4) was saturated with oxygen by three vacuum/oxygen atmosphere cycles. C10 -C^G+ was injected from a concentrated stock solution to a final concentration of 90 µM. For each time point, a 0.5 ml aliquot was removed and mixed with 0.5 ml 2XEllman's reagent. The remaining free thiol was quantitated spectrophotometrically according to Riddles et al. (1979 ). For the template experiment, pCMVluc plasmid DNA was added to a final concentration of 60 µM before addition of the detergent.

In data set [1], `CCCCCCCCCCCCOC(=O)[C@@H](N)CS` [C12] gave a CMC of 15 µM and a c.m.c. of 15 µM.

In the case of `NCCCNCCCCNCCCN` [spermine, reference compound], the “observed UV spectrum after raising NaCl” value in data set [2] (NaCl raised to 100 mM, 65 mM spermine) is given as “identical with the spectrum of the DNA that had been observed before complexation with spermine”.

In data set [1], `CCCCCCCCOC(=O)[C@@H](N)CS` [C8] returned a CMC above 2000 µM and a c.m.c. above 2000 µM.

Take `NC(CS)C(=O)NCCCNCCCCNCCCNC(=O)C(N)CS` (stereo not drawn) [SC2, spermine-N1, N12-bis-cysteineamide]: the thiol groups oxydised in data set [3] amounted to 50%. Moreover, the “absorption at 330 nm as compared to the maximum optical density at 25 mM NaCl” value is recorded as 81% in data set [2] (at 100 mM NaCl, raised one and a half hours after mixing); 71% in data set [2] (at 150 mM NaCl).

Consider `CCCCCCCCCCOC(=O)[C@@H](N)CS` [C10], for which, in data set [1], the CMC amounted to 320 µM, the “CMC without DNA” value was determined as 320 µM and the c.m.c. amounted to 320 µM. Also, the “CMC with DNA” value in data set [4] is 50 µM.

Consider `CCCCCCCCCCNC(=O)C(CS)NC(=N)N` (stereo not drawn) [C10 -CG+, Guanidyl-cysteine-decylamide], for which the “DNA migration / stability during electrophoresis” value in data set [5] is listed as “unable to retard DNA migration”. Moreover, the “oxydation rate into cystine lipid” value in data set [6] is “faster in the presence of template DNA”.

Turning to `CCCCCCCCCCCOC(=O)[C@@H](N)CS` [C11], in data set [1], the CMC was found to be 80 µM, the “CMC without DNA” value is 80 µM and the c.m.c. turned out to be 80 µM. The “CMC with DNA” value in data set [4] was found to be 32 µM.
